These results are taken from patent publication US20240116885A1, “BENZOTHIAZOLE AND QUINOLINE DERIVATIVES AND THEIR USE” (Shanghai Yao Yuan Biotechnology Co., Ltd., priority 2020, published 2024).

One test deals with ALPK1 (Homo sapiens (Human), UniProt Q96QP1). Nature of the test: ALPK1 in vitro kinase assay (HTRF, TIFA phosphorylation). The format is biochemical. To be noted: ADP-Heptose activated ALPK1. The procedure: ALPK1 kinase activity was measured in an in vitro assay using ADP-Heptose as the ALPK1 ligand and activator of its kinase activity and TIFA protein as the ALPK1 phosphorylation substrate. Since phosphorylated TIFA proteins oligomerize, Homogeneous Time-Resolved Fluorescence (HTRF) was used to measure protein:protein interaction between HA-tagged TIFA proteins as an indicator of TIFA phosphorylation.
ALPK1, sequence (Q96QP1 whole entry): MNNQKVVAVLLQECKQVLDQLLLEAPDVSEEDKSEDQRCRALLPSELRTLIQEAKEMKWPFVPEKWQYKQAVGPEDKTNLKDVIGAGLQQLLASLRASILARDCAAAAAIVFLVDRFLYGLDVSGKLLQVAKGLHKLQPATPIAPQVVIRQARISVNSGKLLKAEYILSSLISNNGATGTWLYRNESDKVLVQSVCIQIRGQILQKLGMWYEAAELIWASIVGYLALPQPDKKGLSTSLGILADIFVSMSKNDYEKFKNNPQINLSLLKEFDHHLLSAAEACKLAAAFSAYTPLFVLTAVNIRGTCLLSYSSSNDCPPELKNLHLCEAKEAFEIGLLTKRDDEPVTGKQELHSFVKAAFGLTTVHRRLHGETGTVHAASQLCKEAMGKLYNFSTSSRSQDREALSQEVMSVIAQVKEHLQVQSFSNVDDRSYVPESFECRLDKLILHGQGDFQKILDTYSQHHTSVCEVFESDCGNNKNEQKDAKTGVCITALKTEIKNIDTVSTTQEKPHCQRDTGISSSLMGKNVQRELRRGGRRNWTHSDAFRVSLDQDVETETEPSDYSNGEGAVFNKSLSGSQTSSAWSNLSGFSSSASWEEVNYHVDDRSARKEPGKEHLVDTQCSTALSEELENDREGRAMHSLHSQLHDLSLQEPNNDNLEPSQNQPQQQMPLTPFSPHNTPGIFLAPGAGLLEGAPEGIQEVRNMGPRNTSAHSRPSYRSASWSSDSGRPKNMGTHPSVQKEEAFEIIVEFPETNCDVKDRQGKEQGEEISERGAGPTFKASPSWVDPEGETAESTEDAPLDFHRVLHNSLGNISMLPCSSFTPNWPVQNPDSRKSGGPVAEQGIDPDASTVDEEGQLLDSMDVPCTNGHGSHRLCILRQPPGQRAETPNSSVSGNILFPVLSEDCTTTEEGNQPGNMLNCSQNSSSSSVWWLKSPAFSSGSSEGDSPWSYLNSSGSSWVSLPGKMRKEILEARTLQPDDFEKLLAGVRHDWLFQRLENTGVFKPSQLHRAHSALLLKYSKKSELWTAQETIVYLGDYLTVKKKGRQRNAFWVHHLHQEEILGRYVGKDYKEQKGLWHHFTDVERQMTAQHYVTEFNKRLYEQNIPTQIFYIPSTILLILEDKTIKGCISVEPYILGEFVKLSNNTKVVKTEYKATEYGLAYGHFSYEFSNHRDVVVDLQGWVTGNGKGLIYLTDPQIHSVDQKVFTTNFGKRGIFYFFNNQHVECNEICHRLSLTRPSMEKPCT
In brief, dose-response studies were performed with HEK293 cells cultured in Dulbecco's Modified Eagle Medium (DMEM) supplemented 10% fetal bovine serum (FBS, Hyclone™) containing antibiotics (pen/strep, G418) in 384-well assay plates. Each well contained 0.1 mg TIFA, ALPK1 (2 nM final concentration in reaction mixture) and kinase buffer (100 mM of HEPES pH 7.4, 4 mM DTT, 40 mM MgCl2, 20 mM of β-Glycerol phosphate disodium salt, 0.4 mM of Na3VO4, 0.16 mg/mL). Titrations of the test compounds were prepared in dimethylsulphoxide (DMSO). The reaction was initiated by addition of ATP and ADP-Heptose.
For HTRF, samples were incubated with a Tb cryptate-labeled anti-HA antibody for capturing HA-tagged proteins according to the manufacturer's instructions (PerkinElmer™, CisBio™) and the fluorescence signal was quantified (Tecan Infinite F NANO+). HTRF signals were calculated as the HTRF ratio (ratio of fluorescence measured at 665 nm and 620 nm)×104 (thereby using the signal at 620 nm as an internal standard).
IC50 values were determined using 3- or 4-parameter logistic equation using GraphPad Prism version 6.00. The reference compound, A027, was used as a positive control for each plate.
In general terms: In TR-FRET formats the signal depends on donor and acceptor labels being close together.

Test [1] concerns ALPK1-dependent NFκB reporter gene activation. Description: NFκB gene reporter alkaline phosphatase assay in HEK293 G9 cells. To be noted: Homo sapiens; HEK293 G9 cells stimulated with D-glycero-D-manno-6-fluoro-heptose-1β-S-ADP. The format is cell-based. The procedure:
An alkaline phosphatase reporter assay system was used to measure inhibition of ALPK1-dependent NFκB reporter gene activation. Briefly, HEK293 cells stably expressing an NF-kB reporter (referred to herein as “G9 cells”) were maintained in DMEM as described above. For the assay, cells were seeded into 96-well plates at a density of 10,000 cells/well in Freestyle™ 293 Expression Medium (ThermoFisher), and allowed to attach overnight. Cells were pretreated with serially diluted compounds for 30 min and then stimulated with D-glycero-D-manno-6-fluoro-heptose-1β-S-ADP. […] NFkB gene activation was detected using the chromogenic substrate, para-nitrophenyl phosphate (pNPP) according to the manufacturer's protocols (pNPP Phosphatase Assay, Beyotime Biotechnology).

The term IC50 denotes the midpoint of a concentration-inhibition curve. A higher IC50 goes with a need for much substance. As to `COc1cccc2sc(NC(=O)c3c(F)cc(N4CCC(N)C4)cc3F)nc12` (centres unmarked) [Compound T026, 4-(3-aminopyrrolidin-1-yl)-2,6-difluoro-N-(4-methoxybenzo[d]thiazol-2-yl)benzamide], the IC50 at ALPK1 is 125 nM; in test [1], 2380 nM. With `CN1CCN(c2cc(F)c(C(=O)Nc3nc4c(Br)cccc4s3)c(F)c2)CC1` [Compound T044, N-(4-bromobenzo[d]thiazol-2-yl)-2,6-difluoro-4-(4-methylpiperazin-1-yl)benzamide], the 50% inhibitory concentration (IC50) at ALPK1 is 13 nM; in test [1], 1090 nM. The matching figures for `O=C(Nc1nc2c(Br)cccc2s1)c1c(F)cc(CCN2CCNCC2)cc1F` [Compound T021, N-(4-bromobenzo[d]thiazol-2-yl)-2,6-difluoro-4-(2-(piperazin-1-yl)ethyl)benzamide]: 148 nM and 1200 nM.

On to `CCCN1CCN(c2cc(F)c(C(=O)Nc3nc4c(OC)cccc4s3)c(F)c2)CC1` [Compound T005, 2,6-difluoro-N-(4-methoxybenzo[d]thiazol-2-yl)-4-(4-propylpiperazin-1-yl)benzamide], for which the values for the half-inhibitory concentration (IC50) (against ALPK1; in test [1]) were 81 nM and 2420 nM, respectively. The matching figures for `COc1cccc2sc(NC(=O)c3c(F)cc(N4CC5CC(C4)N5)cc3F)nc12` [Compound T001, 4-(3,6-diazabicyclo[3.1.1]heptan-3-yl)-2,6-difluoro-N-(4-methoxybenzo[d]thiazol-2-yl)benzamide]: 95 nM and 1310 nM.

Regarding `O=C(Nc1nc2c(Br)cccc2s1)c1c(F)cccc1F` [Compound T009, N-(4-bromobenzo[d]thiazol-2-yl)-2,6-difluorobenzamide], the figures for the IC50 (against ALPK1; in test [1]) were 415 nM and 5860 nM, respectively. For the compound `CCOc1cccc2sc(NC(=O)c3c(F)cc(N4CCNCC4)cc3F)nc12` [Compound T057, N-(4-ethoxybenzo[d]thiazol-2-yl)-2,6-difluoro-4-(piperazin-1-yl)benzamide], the half-inhibitory concentration (IC50) in test [1] was 8700 nM. In other words, the single-digit micromolar range. As to `COc1cccc2sc(NC(=O)c3c(F)cc(N4CCN(CCO)CC4)cc3F)nc12` [Compound T025, 2,6-difluoro-4-(4-(2-hydroxyethyl)piperazin-1-yl)-N-(4-methoxybenzo[d]thiazol-2-yl)benzamide], the IC50 turned out to be 148 nM against ALPK1 and 2920 nM in test [1].

`COc1cccc2sc(NC(=O)c3c(C)cc(N4CCNCC4)cc3F)nc12` [Compound T002, 2-fluoro-N-(4-methoxybenzo[d]thiazol-2-yl)-6-methyl-4-(piperazin-1-yl)benzamide]: the IC50 on ALPK1 was found to be 176 nM; in test [1], 2460 nM. The matching figures for `COc1cccc2ccc(NC(=O)c3c(F)cc(N4CCNCC4)cc3F)nc12` [Compound Q001, 2,6-difluoro-N-(8-methoxyquinolin-2-yl)-4-(piperazin-1-yl)benzamide]: 45 nM and 1240 nM. Regarding `COc1cccc2ccc(NC(=O)c3c(F)cc(N4CCN(C)CC4)cc3F)nc12` [Compound Q002, 2,6-difluoro-N-(8-methoxyquinolin-2-yl)-4-(4-methylpiperazin-1-yl)benzamide], the IC50 at ALPK1 came to 157 nM; in test [1], 2300 nM.

Take `C#Cc1cccc2sc(NC(=O)c3c(F)cc(N4CCNC[C@H]4C)cc3F)nc12` [Compound T061, (R)-N-(4-ethynylbenzo[d]thiazol-2-yl)-2,6-difluoro-4-(2-methylpiperazin-1-yl)benzamide]: the IC50 against ALPK1 came to 30 nM; in test [1] it was 300 nM. The matching figures for `COc1cccc2sc(NC(=O)c3c(F)cc(OCCO)cc3F)nc12` [Compound T029, 2,6-difluoro-4-(2-hydroxyethoxy)-N-(4-methoxybenzo[d]thiazol-2-yl)benzamide]: 560 nM and 2990 nM.

`O=C(Nc1nc2c(Br)cccc2s1)c1c(F)ccc(N2CCNCC2)c1F` [Compound T016, N-(4-bromobenzo[d]thiazol-2-yl)-2,6-difluoro-3-(piperazin-1-yl)benzamide]: the concentration for half-maximal inhibition (IC50) at ALPK1 was 47 nM; in test [1], 2220 nM.

`COc1cccc2ncc(NC(=O)c3c(F)cc(N4CCNCC4)cc3F)nc12` [Compound Q009, 2,6-difluoro-N-(8-methoxyquinoxalin-2-yl)-4-(piperazin-1-yl)benzamide]: the IC50 turned out to be 178 nM against ALPK1 and 3720 nM in test [1]. Consider `COc1cccc2sc(NC(=O)c3c(F)cc(NCCN(C)C)cc3F)nc12` [Compound T013, 4-((2-(dimethylamino)ethyl)amino)-2,6-difluoro-N-(4-methoxybenzo[d]thiazol-2-yl)benzamide], for which the results for the IC50 (at ALPK1; in test [1]) were 507 nM and 5220 nM, respectively.

As for `COc1cccc2c(C)cc(NC(=O)c3c(F)cc(N4CCNCC4)cc3F)nc12` [Compound Q008, 2,6-difluoro-N-(8-methoxy-4-methylquinolin-2-yl)-4-(piperazin-1-yl)benzamide], the IC50 against ALPK1 came to 149 nM; in test [1], 2920 nM. As for `COc1cccc2sc(NC(=O)c3c(F)cc(N4CCNCC4)cc3Cl)nc12` [Compound T010, 2-chloro-6-fluoro-N-(4-methoxybenzo[d]thiazol-2-yl)-4-(piperazin-1-yl)benzamide], the 50% inhibitory concentration (IC50) was determined as 49 nM at ALPK1 and 1640 nM in test [1]. `O=C(Nc1nc2c(O)cccc2s1)c1c(F)cc(N2CCNCC2)cc1F` [Compound T045, 2,6-difluoro-N-(4-hydroxybenzo[d]thiazol-2-yl)-4-(piperazin-1-yl)benzamide]: the IC50 worked out at 1650 nM against ALPK1 and 4150 nM in test [1]. Consider `COc1cccc2sc(NC(=O)c3c(F)cc(C(=O)N4CCNCC4)cc3F)nc12` [Compound T040, 2,6-difluoro-N-(4-methoxybenzo[d]thiazol-2-yl)-4-(piperazine-1-carbonyl)benzamide], for which the concentration for half-maximal inhibition (IC50) at ALPK1 is 341 nM; in test [1], 6330 nM. The matching figures for `C#Cc1cccc2sc(NC(=O)c3c(F)cc(-n4ccnc4)cc3F)nc12` [Compound T066, N-(4-ethynylbenzo[d]thiazol-2-yl)-2,6-difluoro-4-(1H-imidazol-1-yl)benzamide]: 367 nM and 1560 nM.

As to `COC(=O)C1CCN(c2cc(F)c(C(=O)Nc3nc4c(OC)cccc4s3)c(F)c2)CC1` [Compound T011, methyl 1-(3,5-difluoro-4-((4-methoxybenzo[d]thiazol-2-yl)carbamoyl)phenyl)piperidine-4-carboxylate], the IC50 against ALPK1 stood at 420 nM; in test [1], 6650 nM. The matching figures for `COc1cccc2sc(NC(=O)c3c(F)cc(N4CCOCC4)cc3F)nc12` [Compound T022, 2,6-difluoro-N-(4-methoxybenzo[d]thiazol-2-yl)-4-morpholinobenzamide]: 295 nM and 2010 nM. The matching figures for `COc1cc(Cl)cc2sc(NC(=O)c3c(F)cc(N4CCNCC4)cc3F)nc12` [Compound T043, N-(6-chloro-4-methoxybenzo[d]thiazol-2-yl)-2,6-difluoro-4-(piperazin-1-yl)benzamide]: 401 nM and 3980 nM.

For the compound `O=C(Nc1nc2ccccc2s1)c1c(F)cc(N2CCNCC2)cc1F` [Compound T041, N-(benzo[d]thiazol-2-yl)-2,6-difluoro-4-(piperazin-1-yl)benzamide], the IC50 in test [1] was 3960 nM. On the same count and under the same terms, next, `O=C(Nc1nc2c(F)cc(F)cc2s1)c1c(F)cc(N2CCNCC2)cc1F` [Compound T035]: 5020 nM; `CC(C)Oc1cccc2sc(NC(=O)c3c(F)cc(N4CCNCC4)cc3F)nc12` [Compound T056, 2,6-difluoro-N-(4-isopropoxybenzo[d]thiazol-2-yl)-4-(piperazin-1-yl)benzamide]: 7400 nM. As for `COc1cccc2sc(NC(=O)c3c(F)cc(N4CCNCC4C)cc3F)nc12` (centres unmarked) [Compound T014, 2,6-difluoro-N-(4-methoxybenzo[d]thiazol-2-yl)-4-(2-methylpiperazin-1-yl)benzamide], the IC50 in test [1] amounted to 1310 nM. For the compound `COc1cccc2sc(NC(=O)c3c(F)cc(CN4CCNCC4)cc3F)nc12` [Compound T018, 2,6-difluoro-N-(4-methoxybenzo[d]thiazol-2-yl)-4-(piperazin-1-ylmethyl)benzamide], it took 2460 nM to reach half-maximal inhibition in test [1] (IC50). This IC50 is about 1.9-fold higher than that of the compound before. On the same count and under the same terms, next, `COc1cc(OC)c2nc(NC(=O)c3c(F)cc(N4CCNCC4)cc3F)ccc2c1` [Compound Q006, N-(6,8-dimethoxyquinolin-2-yl)-2,6-difluoro-4-(piperazin-1-yl)benzamide]: 11100 nM.
